“And” between values parts separate entries of the source, which are not always exact repeats. Identical values can stand only once. Counter-ions that a name gives are not always drawn. Like-named read-outs stand apart in the source and are kept apart here.
How the values were obtained:
[1] = for Normalized Cell Voltage (after 5 hrs) / Normalized Metoclopramide Mass Flux (after 5 hrs): metoclopramide HCl 100 mg/ml, 100 μA/cm^2, 32° C.; for effect on skin resistance / resistivity (in words) / effect on metoclopramide mass flux (in words): compared with control without enhancer; for enhancer performance (in words): metoclopramide electrotransport
[2] = tetracaine; electrotransport pretreatment with the enhancer
Experimental: Solutions of the drug to be transported through the skin disks 42, and each of the electrotransport enhancers to be tested were placed at different times in the anodic donor compartment 44. Dulbecco's phosphate buffered saline (approximately 0.1 5N NaCl, with minor amounts of other ions, pH 7.0) was placed in the cathodic receptor compartment 46. The skin resistance was calculated from the voltages applied by the galvanostat according to Ohm's law:
The electrotransport of tetracaine was also conducted with surfactant flux enhancers, such as decyl methyl sulfoxide.

[3] = hydrophile-lipophile balance of the enhancer; cited from earlier work
[4] = Electrotransport of sodium ketoprofen with enhancer (Example 5); format: in vitro ADME, human; conditions: for effect of 20% ethanol solvent on enhancer performance (in words) / effect on ketoprofen mass flux (in words) / effect on skin conductivity (in words): 100 mM ketoprofen; for effect of 20% ethanol solvent on enhancer performance (in words): 20 wt % ethanol/water; for effect on ketoprofen mass flux (in words) / effect on skin conductivity (in words): water alone
Experimental: (§1) Each floating epidermis was stretched essentially flat.
Sodium ketoprofen in aqueous solution forms an univalent anionic anti-inflammatory agent. The electrotransport delivery of 100 mM ketoprofen in the presence of cationic and non-ionic surfactants was tested under the conditions described in Example 1. The enhancers used were laurylamine and dimethyl lauramide. Two sets of tests were conducted. The first in aqueous solution, and the second in 20 wt % ethanol/water solution.

[5] = Electrotransport of di-sodium cromolyn with enhancer (Example 4); format: in vitro ADME, human; conditions: concentration not given in b26; for lowering of skin resistivity: cromolyn donor, dodecylpyrrolidone 100 mM; for increase of cromolyn flux: dodecylpyrrolidone 100 mM in donor
Text: as §1
Di-sodium cromolyn, when in aqueous solution, forms a divalent anion. The experimental conditions were as described in Example 1, except the cromolyn donor solution was placed in the cathodic compartment 46 and the Dulbecco's phosphate buffered saline receptor solution was placed in the anodic compartment 44; and the stratum corneum layer of skin disk 42 was mounted to face the cathodic compartment 46.
Dodecylpyrrolidone, when added to the donor solution, at a concentration of 100 mM, increased cromolyn flux by 50 to 100% and lowered skin resistivity by 30 to 70%.

[6] = for Normalized Cell Voltage (after 5 hrs): relative to no ethanol (1.00)
Experimental: as §1
The prior art teaches that ethanol can be used to enhance both passive and electrically-assisted transdermal drug delivery. […] The agent utilized, metoclopramide HCl, was placed in the donor compartment at about 100 mg metoclopramide/ml, and Dulbecco's phosphate buffered saline (pH 7) was placed in the receptor compartment. The system was maintained at 32° C. and a constant electric current of 100 μA/cm^2 was applied throughout the procedure.

[7] = Micelle formation of tetracaine; format: physicochemical
Experimental: Tetracaine is a much less electrophilic molecule than metoclopramide since it is positively charged at its tertiary amine group, but the rest of the molecule is very hydrophobic. Concentrations of tetracaine higher than 20 mg/ml (75 mM) lead to the formation of micelles, due to the highly surfactant nature of the drug. Lower concentrations of tetracaine may lead to a better showing of the effect of the enhancer.

[8] = relative to control without enhancer (1.00), enhancer 10 mM
[9] = relative to control (1.00), dodecylpyrrolidone 100 mM

**Q.** Which results are given for CCCCCCCCCC[S+](C)[O-] (stereo not shown) [n-Decyl methyl sulfoxide]?
**A.** Normalized Cell Voltage (after 5 hrs) [1, 8]: .44; decrease of cell voltage (in words) [2]: highly beneficial; HLB No. [3]: 32

**Q.** Which results are given for “lauramphocarboxy propionate [Lauramphocarboxypropionate, reference compound]”?
**A.** effect on skin resistance / resistivity (in words) ([1]; metoclopramide HCl donor): did not appear to affect; Normalized Cell Voltage (after 5 hrs) [1, 8]: .93; HLB No. [3]: 54

**Q.** For CCCCCCCCCCCC(=O)N(C)C [Dimethyl lauramide], which “effect of 20% ethanol solvent on enhancer performance (in words)” value [4] is on record?
**A.** improved the performance of both enhancers

**Q.** What about the “effect on ketoprofen mass flux (in words)” value [4] of the same molecule?
**A.** increased mass flux

**Q.** What about the “effect on skin conductivity (in words)” value [4] of the same molecule?
**A.** increased mass flux and skin conductivity

**Q.** What about the “effect on ketoprofen flux and conductivity (in words)” value ([4]; dimethyl lauramide added to ketoprofen, general description) of the same molecule?
**A.** increase in both flux and conductivity

**Q.** What about the “effect on metoclopramide mass flux (in words)” value [1] of the same molecule?
**A.** almost doubling of the amount of the drug delivered

**Q.** And the “skin resistance relative to control” value ([1]; metoclopramide HCl donor, dimethyl lauramide added)?
**A.** about one-half that of the control

**Q.** And the “Normalized Cell Voltage (after 5 hrs)” value [1, 8]?
**A.** .45

**Q.** What about the “Normalized Metoclopramide Mass Flux (after 5 hrs)” value [1, 8] of the same molecule?
**A.** 1.87

**Q.** What about the “Normalized Cell Voltage (after 5 hrs)” value ([1]; relative to control without enhancer (1.00), enhancer 10 mM, listed as dimethyl lauramide) of the same molecule?
**A.** 0.45

**Q.** What about the “HLB No.” value [3] of the same molecule?
**A.** 8

**Q.** With CCCCCCCCCCCCN1CCCC1=O [Dodecyl pyrrolidone] as the molecule, how does the “lowering of skin resistivity” value ([5]; listed as Dodecylpyrrolidone) read?
**A.** 30 to 70%

**Q.** What about the “lowering of skin resistivity” value ([5]; listed as dodecyl pyrrolidone) of the same molecule?
**A.** more than 30%

**Q.** And the “increase of cromolyn flux” value ([5]; listed as Dodecylpyrrolidone)?
**A.** 50 to 100%

**Q.** And the “increase of cromolyn flux” value ([5]; listed as dodecyl pyrrolidone)?
**A.** more than 50%

**Q.** What about the “enhancer performance (in words)” value ([1]; listed as dodecyl pyrrolidone) of the same molecule?
**A.** superior characteristics

**Q.** And the “enhancer performance (in words)” value ([1]; listed as dodecylpyrrolidone)?
**A.** very effective enhancers

**Q.** And the “Normalized Cell Voltage (after 5 hrs)” value [1, 9]?
**A.** .35

**Q.** What about the “Normalized Metoclopramide Mass Flux (after 5 hrs)” value [1, 9] of the same molecule?
**A.** 1.68

**Q.** And the “HLB No.” value [3]?
**A.** 8

**Q.** With CCO [Ethanol, ethanol] as the molecule, how does the “effect on mass flux of metoclopramide (in words)” value [6] read?
**A.** decreased the mass flux of metoclopramide

**Q.** What about the “effect on skin conductivity (in words)” value ([6]; 10 to 30 wt % ethanol) of the same molecule?
**A.** decreased the mass flux of metoclopramide and the skin conductivity

**Q.** What about the “Normalized Cell Voltage (after 5 hrs)” value ([6]; ethanol 10 wt %) of the same molecule?
**A.** 0.82

**Q.** And the “Normalized Cell Voltage (after 5 hrs)” value ([6]; ethanol 20 wt %)?
**A.** 0.70

**Q.** What about the “Normalized Cell Voltage (after 5 hrs)” value ([6]; ethanol 30 wt %) of the same molecule?
**A.** 0.78

**Q.** Which “effect on metoclopramide mass flux (in words)” value [1] does the source give for CCCCCCCCCCCCOS(=O)(=O)[O-].[Na+] [Sodium lauryl sulfate] here?
**A.** enhanced mass flux

**Q.** And the “enhancer performance (in words)” value [1]?
**A.** superior characteristics

**Q.** And the “Normalized Cell Voltage (after 5 hrs)” value [1, 8]?
**A.** .76

**Q.** What about the “Normalized Metoclopramide Mass Flux (after 5 hrs)” value [1, 8] of the same molecule?
**A.** 1.64

**Q.** And the “HLB No.” value [3]?
**A.** 40

**Q.** With CCCCCCCCCCCCN [Lauryl amine] as the molecule, how does the “effect of 20% ethanol solvent on enhancer performance (in words)” value [4] read?
**A.** improved the performance of both enhancers

**Q.** And the “effect on ketoprofen mass flux (in words)” value [4]?
**A.** increased mass flux

**Q.** And the “effect on skin conductivity (in words)” value [4]?
**A.** increased mass flux and skin conductivity

**Q.** And the “effect on metoclopramide mass flux (in words)” value [1]?
**A.** significantly decreased the flux

**Q.** And the “Normalized Cell Voltage (after 5 hrs)” value [1, 8]?
**A.** .22

**Q.** And the “Normalized Metoclopramide Mass Flux (after 5 hrs)” value [1, 8]?
**A.** 0.136

**Q.** What about the “HLB No.” value [3] of the same molecule?
**A.** 11

**Q.** Which “concentration leading to the formation of micelles” value [7] does the source give for CCCCNc1ccc(C(=O)OCCN(C)C)cc1 [tetracaine HCl] here?
**A.** higher than 20 mg/ml and > 75 mM

**Q.** With “Sorbitan monolaurate [reference compound]” as the molecule, how does the “effect on skin resistance / resistivity (in words)” value ([1]; metoclopramide HCl donor) read?
**A.** fail to have a significant effect

**Q.** And the “Normalized Cell Voltage (after 5 hrs)” value [1, 8]?
**A.** .98

**Q.** What about the “HLB No.” value [3] of the same molecule?
**A.** 8.6

**Q.** What does the source list for CCCCCCCCCCCCOC(=O)C(C)O (stereo not shown) [Lauryl lactate, reference compound]?
**A.** effect on skin resistance / resistivity (in words) ([1]; metoclopramide HCl donor): reduced skin resistivity; Normalized Cell Voltage (after 5 hrs) [1, 8]: .92; HLB No. [3]: 4.7
